Laboratory results from ChEMBL document CHEMBL3608206, “Phenolic 4-hydroxy and 3,5-dihydroxy derivatives of 3-phenoxyquinoxalin-2(1H)-one as potent aldose reductase inhibitors with antioxidant activity” (Bioorg Med Chem Lett, 2015).

Legend:
[1] = target: Aldo-keto reductase family 1 member B1 (Rattus norvegicus, UniProt P07943); assay: Inhibition of Wistar rat ALR2 using D,L-glyceraldehyde as substrate assessed as oxidation of NADPH preincubated for 10 mins followed by substrate addition measured for 4 mins by spectrophotometric analysis
Brain [2] = assay: Antioxidant activity in rat brain assessed as inhibition of MDA production at 100 uM by TBARS assay relative to control; type: functional
[3] = Antioxidant activity assessed as DPPH radical scavenging activity at 100 uM after 240 mins by spectrophotometric analysis relative to control; type: physicochemical; details: 4 h
Brain [4] = assay: Antioxidant activity in rat brain assessed as inhibition of MDA production at 10 uM by TBARS assay relative to control; type: functional
[5] = Antioxidant activity assessed as DPPH radical scavenging activity at 50 uM after 240 mins by spectrophotometric analysis relative to control; type: physicochemical; details: 4 h
[6] = target: Aldo-keto reductase family 1 member B1 (Rattus norvegicus) (UniProt P07943); assay: Inhibition of Wistar rat ALR2 using D,L-glyceraldehyde as substrate assessed as oxidation of NADPH at 10 uM preincubated for 10 mins followed by substrate addition measured for 4 mins by spectrophotometric analysis relative to control

Compound	IC50 [1] [nM]	Activity [3] [%]	Activity [5] [%]	inhibition [6] [%]	inhibition at 100 µM (Brain [2]) [%]	inhibition at 10 µM (Brain [4]) [%]
O=C(O)Cn1c(=O)c(Oc2cc(O)cc(O)c2)nc2ccc(Cl)cc21	566	91.3	83.7	–	55.3	26.6
Cc1c(C)c2c(c(C)c1O)CCC(C)(C(=O)O)O2 (stereo not drawn) [TROLOX]	–	96.7	93.3	–	71.3	90.1
O=C(O)Cn1c(=O)c(Oc2cc(O)cc(O)c2)nc2cc(Cl)ccc21	982	56.5	34.5	–	24.5	8.1
O=C(O)Cn1c(=O)c(Oc2cc(O)cc(O)c2)nc2cc(F)ccc21	130	25.4	–	–	15.5	–
O=C(O)Cn1c(=O)c(Oc2cc(O)cc(O)c2)nc2ccc(F)cc21	–	38.2	29.3	34	20.3	9.3

More lines, in order of falling IC50 [1], values ahead:

IC50 [1] [nM]	Activity [3] [%]	Activity [5] [%]	inhibition [6] [%]	Compound	inhibition at 100 µM (Brain [2]) [%]	inhibition at 10 µM (Brain [4]) [%]
940	67.4	46.5	–	O=C(O)Cn1c(=O)c(Oc2cc(O)cc(O)c2)nc2ccccc21	34.5	5.7
374	21.3	–	–	O=C(O)Cn1c(=O)c(Oc2ccc(O)cc2)nc2ccccc21	12.3	–
179	84.8	47.3	–	O=C(O)Cn1c(=O)c(Oc2ccc(O)cc2)nc2ccc(Cl)cc21	49.4	10.1
19.6	23.7	–	–	O=C(O)Cn1c(=O)c(Oc2ccc(O)cc2)nc2cc(F)ccc21	14.3	–
